Measured values reported in ChEMBL document CHEMBL1800031, “Gold(III) chloride catalyzed regioselective synthesis of pyrano[3,4-b]indol-1(9H)-ones and evaluation of anticancer potential towards human cervix adenocarcinoma” (Bioorg Med Chem Lett, 2011).

These molecules were tested on HeLa (assay: Cytotoxicity against human HeLa cells after 48 hrs by MTT assay).
Format: functional, cell-based
Cn1c2ccccc2c2cc(-c3ccccc3)oc(=O)c21 gave an IC50 of 1900 nM. CCn1c2ccccc2c2cc(-c3ccccc3)oc(=O)c21 was tested, and the IC50 was 11300 nM. Molecule CCCCn1c2ccccc2c2cc(-c3ccccc3)oc(=O)c21 has an IC50 of 3200 nM. For COc1ccc2c(c1)c1cc(-c3ccccc3)oc(=O)c1n2C, the IC50 was 220 nM. With CCn1c2ccc(OC)cc2c2cc(-c3ccccc3)oc(=O)c21 the IC50 was 1200 nM. CCCCn1c2ccc(OC)cc2c2cc(-c3ccccc3)oc(=O)c21 gave an IC50 of 5000 nM. For COc1ccc2c(c1)c1cc(-c3ccccc3)oc(=O)c1n2Cc1ccccc1, the IC50 was 6700 nM. For CCCCc1cc2c([nH]c3ccccc32)c(=O)o1, the IC50 was 2600 nM. Work on O=c1oc(-c2ccccc2)cc2c1[nH]c1ccccc12 yielded an IC50 of 19100 nM. COc1ccc2[nH]c3c(=O)oc(-c4ccccc4)cc3c2c1 gave an IC50 of 330 nM.
